Measured values as given in patent EP1880990A1, “NOVEL ORGANIC ELECTROLUMINESCENT MATERIAL, ORGANIC ELECTROLUMINESCENT ELEMENT EMPLOYING THE SAME, AND THIN-FILM-FORMING SOLUTION FOR ORGANIC ELECTROLUMINESCENCE” (IDEMITSU KOSAN CO., LTD., priority 2005, dated 2006).

Legend:
Solubility in toluene = assay type: physicochemical; conditions: for Solubility (toluene): soluble in an amount of ... or more; for Preparation of 1 % by mass toluene solution: 1 % by mass in toluene
Text: A preparation of 1 % by mass toluene solution was tried employing Compound C below instead of Compound 1 in accordance with the same procedures as those conducted in Example 1.
A preparation of 1 % by mass toluene solution was tried employing Compound D below instead of Compound 1 in accordance with the same procedures as those conducted in Example 1.

Ionization potential = assay type: physicochemical

| Compound | Solubility (toluene) (Solubility in toluene) [wt %] | Preparation of 1 % by mass toluene solution (Solubility in toluene) | Ionization potential (Ionization potential) [eV] |
| --- | --- | --- | --- |
| CC1(C)c2ccccc2-c2ccc(N(c3ccccc3)c3ccc(-c4ccc(N(c5ccccc5)c5ccc(-c6cccc(-c7ccc(N(c8ccccc8)c8ccc(-c9ccc(N(c%10ccccc%10)c%10ccc%11c(c%10)C(C)(C)c%10ccccc%10-%11)cc9)cc8)cc7)c6)cc5)cc4)cc3)cc21 [Compound 2] | ≥ 1 |  |  |
| CCCCCCCCC1(CCCCCCCC)c2cc(N(c3ccccc3)c3ccc(-c4ccc(N(c5ccccc5)c5ccc6c(c5)C(C)(C)c5ccccc5-6)cc4)cc3)ccc2-c2ccc(N(c3ccccc3)c3ccc(-c4ccc(N(c5ccccc5)c5ccc6c(c5)C(C)(C)c5ccccc5-6)cc4)cc3)cc21 [Compound 4] | ≥ 1 |  |  |
| CC1(C)c2ccccc2-c2ccc(N(c3ccccc3)c3ccc(-c4ccc(N(c5ccccc5)c5ccc(-c6cccc(-c7cccc(-c8ccc(N(c9ccccc9)c9ccc(-c%10ccc(N(c%11ccccc%11)c%11ccc%12c(c%11)C(C)(C)c%11ccccc%11-%12)cc%10)cc9)cc8)c7)c6)cc5)cc4)cc3)cc21 [Compound 9] | ≥ 1 |  |  |
| CCCCCCCCC1(CCCCCCCC)c2cc(N(c3ccccc3)c3ccc(-c4ccc(N(c5ccc(-c6ccccc6)cc5)c5ccc(-c6ccccc6)cc5)cc4)cc3)ccc2-c2ccc(N(c3ccccc3)c3ccc(-c4ccc(N(c5ccc(-c6ccccc6)cc5)c5ccc(-c6ccccc6)cc5)cc4)cc3)cc21 [Compound 10] | ≥ 5 |  | 5.14 |
| CCC(C)c1ccc(N(c2ccc(-c3ccc(-c4cccc(-c5ccc(-c6ccc(N(c7ccc(-c8ccc(N(c9ccccc9)c9ccccc9)cc8)cc7)c7ccc(C(C)CC)cc7)cc6)cc5)c4)cc3)cc2)c2ccc(-c3ccc(N(c4ccccc4)c4ccccc4)cc3)cc2)cc1 (centres unmarked) [Compound 8] | ≥ 1 |  |  |
| c1ccc(N(c2ccc(-c3ccc(N(c4ccccc4)c4cccc5ccccc45)cc3)cc2)c2ccc(-c3cccc(-c4cccc(-c5ccc(N(c6ccccc6)c6ccc(-c7ccc(N(c8ccccc8)c8cccc9ccccc89)cc7)cc6)cc5)c4)c3)cc2)cc1 [Compound 5] | ≥ 1 |  |  |
| c1ccc(-c2ccc(N(c3ccc(-c4ccccc4)cc3)c3ccc(-c4ccc(N(c5ccc(-c6ccccc6)cc5)c5ccc(-c6ccccc6)cc5)cc4)cc3)cc2)cc1 [Compound D, reference compound] |  | did not dissolve in toluene |  |

The remaining lines, values ahead:

| Solubility (toluene) (Solubility in toluene) [wt %] | Preparation of 1 % by mass toluene solution (Solubility in toluene) | Ionization potential (Ionization potential) [eV] | Compound |
| --- | --- | --- | --- |
| ≥ 1 |  |  | CCC(C)c1ccc(N(c2ccc(-c3ccc(-c4cccc(-c5cccc(-c6ccc(-c7ccc(N(c8ccc(-c9ccc(N(c%10ccc(-c%11ccccc%11)cc%10)c%10ccc(-c%11ccccc%11)cc%10)cc9)cc8)c8ccc(C(C)CC)cc8)cc7)cc6)c5)c4)cc3)cc2)c2ccc(-c3ccc(N(c4ccc(-c5ccccc5)cc4)c4ccc(-c5ccccc5)cc4)cc3)cc2)cc1 (centres unmarked) [Compound 7] |
|  | did not dissolve in toluene |  | c1ccc(N(c2ccc(-c3ccc(N(c4ccccc4)c4cccc5ccccc45)cc3)cc2)c2cccc3ccccc23)cc1 [Compound C, reference compound] |
| ≥ 1 |  |  | CCC(C)c1ccc(N(c2ccc(-c3ccc(N(c4ccccc4)c4ccc5c(c4)C(C)(C)c4ccccc4-5)cc3)cc2)c2ccc(-c3cccc(-c4ccc(N(c5ccc(-c6ccc(N(c7ccccc7)c7ccc8c(c7)C(C)(C)c7ccccc7-8)cc6)cc5)c5ccc(C(C)CC)cc5)cc4)c3)cc2)cc1 (centres unmarked) [Compound 3] |
